The IC50 is the concentration needed to halve the response being measured. By inhibition is commonly meant the drop in the measured response relative to a control, in per cent.

One assay addresses hNAMPT protein (Homo sapiens (Human), UniProt P43490). Briefly: NAMPT enzyme assay (TR-FRET/HTRF, BodiPY ligand, anti 6His-Tb). It is filed as binding. To be noted: for IC50: NAMPT IC50 range class, read-out: IC50; for inhibition at 1 µM: read-out: Percent Inhibition. A digest of the protocol: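 Compound or DMSO was incubated for 1 h at room temperature, protected from light, with BodiPY ligand and hNAMPT labelled by terbium anti-6His antibody. The 520 nm to 486 nm emission ratio after 320 nm excitation gave inhibition versus vehicle, from which concentration-response curves yielded IC50.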
A general note: In TR-FRET formats the signal depends on donor and acceptor labels being close together.

For a further assay, the system named is PC3 cells. Kind of assay: PC3 growth inhibition (Cell-titer glo, 72 hours). It is filed as cell-based. As to conditions: Homo sapiens, PC-3, PC3 cells, 72 hours, Cell-titer glo, read-out: Percent Inhibition (PC3 growth inhibition); for inhibition at 1 µM: compound concentration 1 μM; for inhibition at 1.667 µM: compound concentration 1.667 μM. The method in brief: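 Compounds in AIM serum-free medium were applied for 72 h at 37 °C, 5% CO2 to PC3 cells plated overnight from RPMI1640 culture. Luminescence after 10 min CellTiter-Glo, normalised to DMSO, gave % viability at 1 μM or 1.667 μM, or GI50/LD50.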

Read-outs that look alike come from different tables or passages of the source.

Sequence of hNAMPT protein (P43490 whole entry): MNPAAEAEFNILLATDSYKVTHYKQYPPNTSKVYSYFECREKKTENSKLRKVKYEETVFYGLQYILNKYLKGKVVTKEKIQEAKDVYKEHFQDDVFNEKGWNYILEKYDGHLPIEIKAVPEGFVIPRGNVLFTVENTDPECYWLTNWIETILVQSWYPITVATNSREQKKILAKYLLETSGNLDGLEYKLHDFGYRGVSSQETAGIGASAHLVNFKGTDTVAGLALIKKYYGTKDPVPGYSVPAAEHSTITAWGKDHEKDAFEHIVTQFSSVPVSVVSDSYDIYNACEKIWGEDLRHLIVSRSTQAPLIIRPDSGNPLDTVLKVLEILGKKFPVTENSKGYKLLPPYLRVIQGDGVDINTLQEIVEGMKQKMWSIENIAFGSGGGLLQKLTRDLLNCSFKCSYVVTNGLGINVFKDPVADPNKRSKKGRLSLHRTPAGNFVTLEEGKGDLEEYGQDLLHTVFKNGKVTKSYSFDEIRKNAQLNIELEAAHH

Consider `Cn1cnc2cc(-c3nc4ccc(C(=O)NCCCn5ccnc5)cc4nc3-c3ccccc3)ccc21` [Compound I-38, N-[3-(1H-imidazol-1-yl)propyl]-2-(1-methyl-1H-benzimidazol-5-yl)-3-phenylquinoxaline-6-carboxamide], for which the 50% inhibitory concentration (IC50) on hNAMPT protein was less than 100 nM. Moreover, the inhibition at 1 µM was 94% at hNAMPT protein (compound concentration 1 μM) and -8% with PC3 cells.
For the compound `O=C(NCCCc1ncc[nH]1)c1ccc2nc(N3CCOCC3)c(-c3ccc(F)cc3)nc2c1` [Compound I-39, 3-(4-fluorophenyl)-N-[3-(1H-imidazol-2-yl)propyl]-2-(morpholin-4-yl)quinoxaline-6-carboxamide], the IC50 at hNAMPT protein was less than 100 nM. On hNAMPT protein (compound concentration 1 μM), the inhibition at 1 µM came out at 97%. The inhibition at 1.667 µM with PC3 cells turned out to be 2%.
For `O=C(NCCCn1ccnc1)c1ccc2nc(-c3ccccc3)c(-c3cncnc3)nc2c1` [Compound I-41, N-[3-(1H-imidazol-1-yl)propyl]-2-phenyl-3-(pyrimidin-5-yl)quinoxaline-6-carboxamide], on hNAMPT protein, the 50% inhibitory concentration (IC50) fell in the range of 2000 to 10000 nM. Besides, the results for the inhibition at 1 µM at hNAMPT protein (compound concentration 1 μM) and with PC3 cells were 17% and 5%, respectively.
Turning to `O=C(NCCCc1nccs1)c1ccc2nc(N3CCC(N4CCOCC4)CC3)c(-c3ccc(F)cc3)nc2c1` [Compound I-42, 3-(4-fluorophenyl)-2-[4-(morpholin-4-yl)piperidin-1-yl]-N-[3-(1,3-thiazol-2-yl)propyl]quinoxaline-6-carboxamide], the IC50 at hNAMPT protein is less than 100 nM. Further, the inhibition at 1 µM on hNAMPT protein (compound concentration 1 μM) was 96%. In addition, the inhibition at 1.667 µM in the assay with PC3 cells is greater than 99%.
Regarding `O=C(NCCc1ccc2[nH]cnc2c1)c1ccc2nc(-c3ccc(F)cc3)c(-c3ccc(F)cc3)nc2c1` [Compound I-43, N-[2-(1H-benzimidazol-5-yl)ethyl]-2,3-bis(4-fluorophenyl)quinoxaline-6-carboxamide], on hNAMPT protein, the concentration for half-maximal inhibition (IC50) is 2000 to 10000 nM. Besides, the inhibition at 1 µM was 23% on hNAMPT protein (compound concentration 1 μM) and 16% with PC3 cells.
Take `O=C(NCCCc1ncc[nH]1)c1ccc2nc(N3CCC(N4CCOCC4)CC3)c(-c3cccs3)nc2c1` [Compound I-44, N-[3-(1H-imidazol-2-yl)propyl]-2-[4-(morpholin-4-yl)piperidin-1-yl]-3-(2-thienyl)quinoxaline-6-carboxamide]: at hNAMPT protein, the half-maximal inhibitory concentration (IC50) is less than 100 nM. Besides, the inhibition at 1 µM at hNAMPT protein (compound concentration 1 μM) is greater than 99%. Moreover, the inhibition at 1.667 µM in the assay with PC3 cells stood at 33%.
As for `O=C(NCCCn1ccnc1)c1ccc2nc(-c3ccc(Cl)cc3)c(-c3ccccc3)nc2c1` [Compound I-45, 2-(4-chlorophenyl)-N-[3-(1H-imidazol-1-yl)propyl]-3-phenylquinoxaline-6-carboxamide], the IC50 at hNAMPT protein is 100 to 500 nM. For the same compound, the inhibition at 1 µM at hNAMPT protein (compound concentration 1 μM) was 50%; in the assay on PC3 cells, -6%.
With `COc1cccc(-c2nc3cc(C(=O)NCCCc4cccnc4)ccc3nc2N2CCC(O)CC2)c1` [Compound I-46, 2-(4-hydroxypiperidin-1-yl)-3-(3-methoxyphenyl)-N-[3-(pyridin-3-yl)propyl]quinoxaline-6-carboxamide], the IC50 at hNAMPT protein is less than 100 nM. The inhibition at 1 µM at hNAMPT protein (compound concentration 1 μM) stood at 98%. The inhibition at 1.852 µM with PC3 cells (compound concentration 1.852 μM) is 2%.
Take `O=C(NCCCc1ccnnc1)c1ccc2nc(N3CCOCC3)c(-c3ccc(F)cc3)nc2c1` [Compound I-47, 3-(4-Fluorophenyl)-2-(morpholin-4-yl)-N-[3-(pyridazin-4-yl)propyl]quinoxaline-6-carboxamide]: at hNAMPT protein, the IC50 is less than 100 nM and the inhibition at 1 µM is 90%. In the assay with PC3 cells, the inhibition at 1.667 µM worked out at 33%.
For the compound `CS(=O)(=O)Nc1cccc(-c2nc3cc(C(=O)NCCCn4ccnc4)ccc3nc2-c2ccccc2)c1` [Compound I-48, N-[3-(1H-imidazol-1-yl)propyl]-3-{3-[(methylsulfonyl)amino]phenyl}-2-phenylquinoxaline-6-carboxamide], at hNAMPT protein, the IC50 was in the range of 100 to 500 nM. The results for the inhibition at 1 µM at hNAMPT protein (compound concentration 1 μM) and in the assay on PC3 cells were 87% and 1%, respectively.
Taken in the same sequence, the figures for `O=C(NCCCn1ccnc1)c1ccc2nc(-c3cn[nH]c3)c(-c3ccccc3)nc2c1` [Compound I-49, N-[3-(1H-imidazol-1-yl)propyl]-3-phenyl-2-(1H-pyrazol-4-yl)quinoxaline-6-carboxamide] were 500 to 1000 nM, 56% and 8%.
With `O=C(NCCCc1ncc[nH]1)c1ccc2nc(Cl)c(-c3ccc(Cl)cc3)nc2c1` [Compound I-50, 2-chloro-3-(4-chlorophenyl)-N-[3-(1H-imidazol-2-yl)propyl]quinoxaline-6-carboxamide], the IC50 on hNAMPT protein was less than 100 nM. The inhibition at 1 µM at hNAMPT protein (compound concentration 1 μM) was found to be 87%. Further, the inhibition at 1.667 µM in the assay on PC3 cells came to 96%.
For the compound `CC(=O)N1CCN(c2nc3ccc(C(=O)NCCCn4ccnc4)cc3nc2-c2ccccc2)CC1` [Compound I-51, 2-(4-acetylpiperazin-1-yl)-N-[3-(1H-imidazol-1-yl)propyl]-3-phenylquinoxaline-6-carboxamide], the IC50 at hNAMPT protein was in the range of 100 to 500 nM. Besides, the inhibition at 1 µM is 81% at hNAMPT protein (compound concentration 1 μM) and -7% with PC3 cells.
`COc1cccc(-c2nc3ccc(C(=O)NCCCn4ccnc4)cc3nc2-c2cccc(OC)c2)c1` [Compound I-52, N-[3-(1H-imidazol-1-yl)propyl]-2,3-bis(3-methoxyphenyl)quinoxaline-6-carboxamide]: on hNAMPT protein, the IC50 was less than 100 nM. Further, the results for the inhibition at 1 µM at hNAMPT protein (compound concentration 1 μM) and in the assay with PC3 cells were 103% and 0%, respectively.
Taken in the same sequence, the figures for `Cn1cncc1CCNC(=O)c1ccc2nc(-c3ccc(F)cc3)c(-c3ccc(F)cc3)nc2c1` [Compound I-53, 2,3-bis(4-fluorophenyl)-N-[2-(1-methyl-1H-imidazol-5-yl)ethyl]quinoxaline-6-carboxamide] were 100 to 500 nM, 77% and -6%.
Taken in the same sequence, the figures for `N#Cc1ccccc1-c1nc2ccc(C(=O)NCCCn3ccnc3)cc2nc1-c1ccccc1` [Compound I-54, 2-(2-cyanophenyl)-N-[3-(1H-imidazol-1-yl)propyl]-3-phenylquinoxaline-6-carboxamide] were 500 to 1000 nM, 50% and -7%.
Taken in the same sequence, the figures for `COc1cccc(-c2nc3cc(C(=O)NCCCn4ccnc4)ccc3nc2N2CCOCC2)c1` [Compound I-55, N-[3-(1H-imidazol-1-yl)propyl]-3-(3-methoxyphenyl)-2-(morpholin-4-yl)quinoxaline-6-carboxamide] were less than 100 nM, 102% and -7%.
Consider `O=C(c1ccc2nc(-c3ccc(F)cc3)c(-c3ccc(F)cc3)nc2c1)N1CCn2ccnc2C1` [Compound I-56, [2,3-bis(4-fluorophenyl)quinoxalin-6-yl](5,6-dihydroimidazo[1,2-a]pyrazin-7(8H)-yl)methanone], for which the IC50 on hNAMPT protein lay in the range of 2000 to 10000 nM. Also, the inhibition at 1 µM at hNAMPT protein (compound concentration 1 μM) was 33%; in the assay on PC3 cells, 104%.
Taken in the same sequence, the figures for `Cc1nccn1CCCNC(=O)c1ccc2nc(-c3ccc(F)cc3)c(-c3ccc(F)cc3)nc2c1` [Compound I-57, 2,3-bis(4-fluorophenyl)-N-[3-(2-methyl-1H-imidazol-1-yl)propyl]quinoxaline-6-carboxamide] were less than 100 nM, 96% and 45%.
As for `CN(C)c1nc2ccc(C(=O)NCCc3cncn3C)cc2nc1-c1ccc(F)cc1` [Compound I-58, 2-(dimethylamino)-3-(4-fluorophenyl)-N-[2-(1-methyl-1H-imidazol-5-yl)ethyl]quinoxaline-6-carboxamide], the IC50 on hNAMPT protein lay in the range of 500 to 1000 nM. In addition, the inhibition at 1 µM at hNAMPT protein (compound concentration 1 μM) is 64%. For the same compound, in the assay with PC3 cells, the inhibition at 1.667 µM is 50%.
Take `COC1CN(c2nc3ccc(C(=O)NCCCn4ccnc4)cc3nc2-c2ccccc2)C1` [Compound I-59, N-[3-(1H-imidazol-1-yl)propyl]-2-(3-methoxyazetidin-1-yl)-3-phenylquinoxaline-6-carboxamide]: at hNAMPT protein, the IC50 was 1000 to 2000 nM. The inhibition at 1 µM was 49% at hNAMPT protein (compound concentration 1 μM) and -6% with PC3 cells.
As to `O=C(NCCCn1ccnc1)c1ccc2nc(-c3ccsc3)c(-c3ccccc3)nc2c1` [Compound I-60, N-[3-(1H-imidazol-1-yl)propyl]-3-phenyl-2-(3-thienyl)quinoxaline-6-carboxamide], at hNAMPT protein, the IC50 was in the range of 500 to 1000 nM. Further, the inhibition at 1 µM is 51% at hNAMPT protein (compound concentration 1 μM) and -4% in the assay with PC3 cells.
Taken in the same sequence, the figures for `O=C(NCCCn1ccnc1)c1ccc2nc(-c3cccc(OC(F)(F)F)c3)c(-c3ccccc3)nc2c1` [Compound I-61, N-[3-(1H-imidazol-1-yl)propyl]-3-phenyl-2-[3-(trifluoromethoxy)phenyl]quinoxaline-6-carboxamide] were 100 to 500 nM, 75% and -7%.
Taken in the same sequence, the figures for `O=C(NCCCn1ccnc1)c1ccc2nc(NCc3ccccc3)c(-c3ccccc3)nc2c1` [Compound I-62, 2-(benzylamino)-N-[3-(1H-imidazol-1-yl)propyl]-3-phenylquinoxaline-6-carboxamide] were 2000 to 10000 nM, 24% and -4%.
`CC(C)(C)OC(=O)NCc1ccc(-c2nc3cc(C(=O)NCCCn4ccnc4)ccc3nc2-c2ccccc2)cc1` [Compound I-63, tert-Butyl [4-(7-{[3-(1H-imidazol-1-yl)propyl]carbamoyl}-3-phenylquinoxalin-2-yl)benzyl]carbamate]: on hNAMPT protein, the IC50 lay within 2000 to 10000 nM and the inhibition at 1 µM was determined as 17%. Further, the inhibition at 1 µM in the assay on PC3 cells was 25%.

These data come from patent US10144742B2 (Millennium Pharmaceuticals, Inc., priority 2014, dated 2018).
